Where a name gives a salt, the structure may show the parent alone. Read-outs that look alike come from different tables or passages of the source.
Key:
human EP2 receptor [1] = target: T1, human EP2 receptor (Homo sapiens, UniProt P43116); test: Measurement of EP2 receptor binding affinity ([3H]PGE2 displacement)
T1 construct: purchased Euroscreen S.A. ES-562-M; host or cells: HEK293 cells
Description: (§1) Measurement of EP2 receptor binding affinity was carried out according to the method of Abramovitz et al. (Biochimica et Biophysica Acta, 1483, 285 (2000)). […] The membrane fraction was recovered on glass fiber filter paper (GF/B, available from Whatman PLC) using a cell harvester […], available from Brandel Inc.), and after washing with a buffer solution (10 mM MES-KOH (pH 6.0), 10 mM MgCl2), radioactivity was measured with a liquid scintillation analyzer (2000CA, available from Packard). […] The dissociation constant (Kd value) was calculated by Scatchard analysis.

human EP4 receptor = human EP4 receptor (Homo sapiens, UniProt P35408); test: Measurement of EP4 receptor binding affinity ([3H]PGE2 displacement)
Sequence of human EP4 receptor (P35408 whole entry): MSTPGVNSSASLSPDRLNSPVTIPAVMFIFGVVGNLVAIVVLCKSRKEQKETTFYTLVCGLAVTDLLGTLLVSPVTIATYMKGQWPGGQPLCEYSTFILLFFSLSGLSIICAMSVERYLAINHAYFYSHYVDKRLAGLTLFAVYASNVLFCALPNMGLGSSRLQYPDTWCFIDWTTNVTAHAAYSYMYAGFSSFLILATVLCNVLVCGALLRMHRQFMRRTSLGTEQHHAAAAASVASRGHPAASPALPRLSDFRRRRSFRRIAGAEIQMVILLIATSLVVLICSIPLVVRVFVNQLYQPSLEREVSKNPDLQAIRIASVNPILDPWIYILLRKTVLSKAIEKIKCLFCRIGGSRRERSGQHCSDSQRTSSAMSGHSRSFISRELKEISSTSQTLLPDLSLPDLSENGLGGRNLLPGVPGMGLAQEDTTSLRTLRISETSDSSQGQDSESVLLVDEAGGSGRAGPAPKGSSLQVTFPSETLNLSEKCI
Description: With regard to EP1, EP3 and EP4 receptors, measurements of the receptor binding affinity were carried out in the same manner as in Test example 1 according to the following methods.
The membrane fraction was recovered on glass fiber filter paper (GF/B, available from Whatman PLC) pretreated with 0.3% polyethyleneimine by using a cell harvester (M30R, available from Brandel Inc.), and after washing with a buffer solution (50 mM HEPES-NaOH (pH 7.4), 500 mM NaCl, 0.1% BSA), radioactivity was measured with a liquid scintillation analyzer (2000CA, available from Packard). […] The dissociation constant (Kd value) was calculated by Scatchard analysis.

human EP3 receptor = target: T2, human EP3 receptor (Homo sapiens, UniProt P43115); test: Measurement of EP3 receptor binding affinity ([3H]PGE2 displacement)
T2 sequence (P43115 1-390): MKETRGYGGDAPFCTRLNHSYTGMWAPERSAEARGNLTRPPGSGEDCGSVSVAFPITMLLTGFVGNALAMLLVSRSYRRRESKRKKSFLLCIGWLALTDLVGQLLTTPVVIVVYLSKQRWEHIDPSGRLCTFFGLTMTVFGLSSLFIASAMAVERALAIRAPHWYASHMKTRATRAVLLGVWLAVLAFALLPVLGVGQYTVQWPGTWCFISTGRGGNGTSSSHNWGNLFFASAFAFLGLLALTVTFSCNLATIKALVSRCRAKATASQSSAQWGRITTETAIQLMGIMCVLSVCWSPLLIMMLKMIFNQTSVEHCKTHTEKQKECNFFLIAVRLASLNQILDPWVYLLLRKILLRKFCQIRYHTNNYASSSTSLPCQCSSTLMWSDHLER
Description: Measurement of EP3 receptor binding affinity was carried out according to the method described in the data sheet of Millipore Corp. […] The membrane fraction was recovered on glass fiber filter paper (GF/B, available from Whatman PLC) pretreated with 0.3% polyethyleneimine by using a cell harvester […], available from Brandel Inc.), and after washing with a buffer solution (50 mM Tris-HCl (pH 7.4)), radioactivity was measured with a liquid scintillation analyzer (2000CA, available from Packard). […] The dissociation constant (Kd value) was calculated by Scatchard analysis.

human EP2 receptor [2] = target: T1, human EP2 receptor; test: Measurement of EP2 agonist activity (cAMP amount in cells); format: cell-based; conditions: HEK 293 cells expressing human EP2 receptor, cAMP increase, 30 minutes
Description: Measurement of EP2 agonist activity was carried out according to the method of Wilson et al. (European Journal of Pharmacology, 501, 49 (2004)). […] On the next day, the medium was replaced with serum-free MEM medium containing 3-isobutyl-1-methylxanthine (final concentration: 500 μM) and after culturing for 30 minutes, a test compound dissolved in dimethylsulfoxide was added and the medium was allowed to stand in a carbon dioxide gas incubator. After 30 minutes, an amount of cAMP in the cells was measured with a cAMP Biotrak EIA System kit (available from GE Healthcare Bioscience).

human EP1 receptor = target: T3, human EP1 receptor (Homo sapiens, UniProt P34995); test: Measurement of EP1 receptor binding affinity ([3H]PGE2 displacement)
T3 sequence (P34995 1-402): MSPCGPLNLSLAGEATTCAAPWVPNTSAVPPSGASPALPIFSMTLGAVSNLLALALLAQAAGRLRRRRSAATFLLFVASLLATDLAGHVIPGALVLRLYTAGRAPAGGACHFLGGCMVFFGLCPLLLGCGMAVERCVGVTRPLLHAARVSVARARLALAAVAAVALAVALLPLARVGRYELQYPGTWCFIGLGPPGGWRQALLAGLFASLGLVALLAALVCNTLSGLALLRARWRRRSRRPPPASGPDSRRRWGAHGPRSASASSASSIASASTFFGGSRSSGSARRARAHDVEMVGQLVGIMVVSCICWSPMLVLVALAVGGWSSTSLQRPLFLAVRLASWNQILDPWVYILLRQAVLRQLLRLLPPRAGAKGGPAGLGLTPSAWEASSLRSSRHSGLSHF
Description: as §1, with “EP1” for “EP2”, “PLC) pretreated with 0.3% polyethyleneimine by” for “PLC)”

[3] = read-out: Ki value of EP2 receptor binding affinity
[4] = membrane fraction of Chem-1 cells expressing human EP1 receptor, [3H]PGE2 10 nM

T1 sequence (P43116 whole entry): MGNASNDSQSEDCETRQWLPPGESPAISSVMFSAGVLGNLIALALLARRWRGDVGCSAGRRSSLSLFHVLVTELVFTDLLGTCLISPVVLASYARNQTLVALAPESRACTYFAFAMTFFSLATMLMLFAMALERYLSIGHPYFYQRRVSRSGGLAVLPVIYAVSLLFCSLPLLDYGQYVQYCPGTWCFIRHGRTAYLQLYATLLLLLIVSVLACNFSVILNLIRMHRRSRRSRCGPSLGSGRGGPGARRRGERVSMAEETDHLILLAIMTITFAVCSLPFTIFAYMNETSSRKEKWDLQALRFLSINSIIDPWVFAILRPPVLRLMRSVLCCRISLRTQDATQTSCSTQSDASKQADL

Structure (SMILES)	Ki (human EP2 receptor [1]; [3]) [nM]	EC50 (human EP2 receptor [2]) [nM]	also measured
CCCCC(C)(C)c1ccc(CN(Cc2cccc(NCC(=O)O)n2)S(=O)(=O)c2ccccn2)cc1 [Example 37, (6-{[4-(1,1-Dimethylpentyl)benzyl](pyridin-2-ylsulfonyl)aminomethyl}pyridin-2-ylamino)acetic acid]	1.8	6.1	Ki (human EP4 receptor): > 3000 nM; Ki (human EP3 receptor): > 3000 nM; Ki (human EP1 receptor): > 3000 nM
CCC1(c2ccc(CN(Cc3cccc(NCC(=O)O)n3)S(=O)(=O)c3cccnc3)cc2)CC1 [Example 7, (6-{[4-(1-Ethylcyclopropyl)benzyl](pyridin-3-ylsulfonyl)aminomethyl}pyridin-2-ylamino)acetic acid]	8.3	4.5	
CCCCC1(c2ccc(CN(Cc3cccc(NCC(=O)O)n3)S(=O)(=O)c3ccncc3)cc2)CC1 [Example 16, (6-{[4-(1-Butylcyclopropyl)benzyl](pyridin-4-ylsulfonyl)aminomethyl}pyridin-2-ylamino)acetic acid]	6.1	6.3	
CC(C)(C)c1ccc(CN(Cc2cccc(NCC(=O)O)n2)S(=O)(=O)c2ccc(F)cc2)cc1 [Example 30, {6-[(4-tert-Butylbenzyl)(4-fluorobenzenesulfonyl)aminomethyl]pyridin-2-ylamino}-acetic acid hydrochloride]	8.3	2.7	
CCC(C)(C)c1ccc(CN(Cc2cccc(NCC(=O)O)n2)S(=O)(=O)c2ccccn2)cc1 [Example 28, {6-[(4-tert-Pentylbenzyl)(pyridin-2-ylsulfonyl)aminomethyl]pyridin-2-ylamino}acetic acid hydrochloride]	9.8	6.4	
CC(C)(CCCC(F)(F)F)c1ccc(CN(Cc2cccc(NCC(=O)O)n2)S(=O)(=O)c2ccccn2)cc1 [Example 53, (6-{[4-(5,5,5-Trifluoro-1,1-dimethylpentyl)benzyl](pyridin-2-ylsulfonyl)aminomethyl}pyridin-2-ylamino)acetic acid]	8.7	4.1	Ki (human EP4 receptor): > 3000 nM; Ki (human EP3 receptor): > 3000 nM; Ki (human EP1 receptor): > 3000 nM
CCCOCC1(c2ccc(CN(Cc3cccc(NCC(=O)O)n3)S(=O)(=O)c3ccccn3)cc2)CC1 [Example 18, (6-{[4-(1-Propoxymethylcyclopropyl)benzyl](pyridin-2-ylsulfonyl)aminomethyl}pyridin-2-ylamino)acetic acid]	5.5	3	Ki (human EP4 receptor): > 3000 nM; Ki (human EP3 receptor): > 3000 nM; Ki (human EP1 receptor): > 3000 nM
CCCCC(C)c1ccc(CN(Cc2cccc(NCC(=O)O)n2)S(=O)(=O)c2ccccn2)cc1 (stereo not shown) [Example 40, (6-{[4-(1-Methylpentyl)benzyl](pyridin-2-ylsulfonyl)aminomethyl}pyridin-2-ylamino)-acetic acid]	5.3	2.8	
CCCCC1(c2ccc(CN(Cc3cccc(NCC(=O)O)n3)S(=O)(=O)c3ccccn3)cc2)CC1 [Example 9, 6-{[4-(1-Butylcyclopropyl)benzyl](pyridin-2-ylsulfonyl)aminomethyl}pyridin-2-ylamino)acetic acid hydrochloride]		4.9	Ki (human EP2 receptor [1]; membrane fraction of HEK293 cells expressing human EP2 receptor, [3H]PGE2 10 nM, Table 2, read-out: Ki value of EP2 receptor binding affinity): 2.9 nM; Ki (human EP2 receptor [1]; membrane fraction of HEK293 cells expressing human EP2 receptor, Table 4, read-out: EP2 receptor binding affinity Ki value): 2.9 nM; Ki (human EP4 receptor; membrane fraction of Chem-1 cells expressing human EP4 receptor, [3H]PGE2 1 nM): > 3000 nM; Ki (human EP3 receptor; membrane fraction of Chem-1 cells expressing human EP3 receptor, [3H]PGE2 2 nM): > 3000 nM; Ki (human EP1 receptor; [4]): > 3000 nM
CCCCC[C@H](O)/C=C/[C@H]1[C@H](O)CC(=O)[C@@H]1C/C=C\CCCC(=O)O [PGE2, Prostaglandin E2, reference compound]			Ki (human EP1 receptor; [4]): 9 nM
CCCCC(C)(C)c1ccc(CN(Cc2cccc(NCC(=O)O)n2)S(=O)(=O)c2ccc(F)cc2)cc1 [Example 47, (6-{(4-Fluorobenzenesulfonyl)[4-(1,1-dimethylpentyl)benzyl]aminomethyl}pyridin-2-ylamino)acetic acid]	3.2	7.1	Ki (human EP4 receptor): > 3000 nM; Ki (human EP3 receptor): > 3000 nM; Ki (human EP1 receptor): > 3000 nM
CC(C)(C)c1ccc(CN(Cc2cccc(NCC(=O)O)n2)S(=O)(=O)c2cccc(F)c2)cc1 [Example 31, {6-[(4-tert-Butylbenzyl)(3-fluorobenzenesulfonyl)aminomethyl]pyridin-2-ylamino}-acetic acid hydrochloride]	8.6	6.1	
CCCCC(C)(C)c1ccc(CN(Cc2cccc(NCC(=O)O)n2)S(=O)(=O)c2ccccn2)c(F)c1 [Example 55, (6-{[2-Fluoro-4-(1,1-dimethylpentyl)benzyl](pyridin-2-ylsulfonyl)aminomethyl}pyridin-2-ylamino)acetic acid]	2.1	7	
CCCCC(C)(C)c1ccc(CN(Cc2cccc(NCC(=O)O)n2)S(=O)(=O)c2ccccn2)s1 [Example 2, (6-{[5-(1,1-Dimethylpentyl)thiophen-2-ylmethyl](pyridin-2-ylsulfonyl)aminomethyl}pyridin-2-ylamino)acetic acid]	1.9	3.6	Ki (human EP4 receptor): > 3000 nM; Ki (human EP3 receptor): > 3000 nM; Ki (human EP1 receptor): > 3000 nM
CC(C)(C)c1ccc(CN(Cc2cccc(NCC(=O)O)n2)S(=O)(=O)c2ccc(Cl)cc2)cc1 [Example 33, {6-[(4-tert-Butylbenzyl)(4-chlorobenzenesulfonyl)aminomethyl]pyridin-2-ylamino}-acetic acid hydrochloride]	4.4	4.4	
CCCCC1(c2ccc(CN(Cc3cccc(NCC(=O)O)n3)S(=O)(=O)c3cccnc3)cc2)CC1 [Example 10, 6-{[4-(1-Butylcyclopropyl)benzyl](pyridin-3-ylsulfonyl)aminomethyl}pyridin-2-ylamino)acetic acid hydrochloride]	11	4.2	
CCC(C)(C)c1ccc(CN(Cc2cccc(NCC(=O)O)n2)S(=O)(=O)c2ccccn2)s1 [Example 4, {6-[(5-tert-Pentylthiophen-2-ylmethyl)(pyridin-2-ylsulfonyl)aminomethyl]pyridin-2-ylamino}acetic acid]	3.4	7	
